For one assay, the target named is T1, ALDH3A1 (Homo sapiens, UniProt P30838).
T1 construct: made in house
T1 sequence (P30838 1-453): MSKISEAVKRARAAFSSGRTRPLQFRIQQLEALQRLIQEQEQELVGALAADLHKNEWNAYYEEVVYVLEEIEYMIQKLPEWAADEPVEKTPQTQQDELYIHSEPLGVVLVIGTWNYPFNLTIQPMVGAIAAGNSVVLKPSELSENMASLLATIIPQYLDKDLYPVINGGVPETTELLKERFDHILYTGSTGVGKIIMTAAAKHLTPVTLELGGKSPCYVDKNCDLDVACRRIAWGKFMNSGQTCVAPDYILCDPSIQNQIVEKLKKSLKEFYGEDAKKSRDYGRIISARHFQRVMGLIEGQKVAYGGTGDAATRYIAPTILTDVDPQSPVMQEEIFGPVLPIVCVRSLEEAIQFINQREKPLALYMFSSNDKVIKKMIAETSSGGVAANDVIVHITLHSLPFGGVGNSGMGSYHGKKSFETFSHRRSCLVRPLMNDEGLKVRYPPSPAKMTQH
Put plainly: ALDH3A1 benzaldehyde oxidation activity assay. The assay is classed as biochemical. To be noted: for IC50: Table 4, NI/NI(A) at 100 μM compound, read-out: IC50 in μM (SE) ALDH3A1. On the procedure: Hits from the HTS were ordered from ChemDiv to determine if they had any effect on aldehyde oxidation and whether they were selective for ALDH1A1 compared to ALDH2 and ALDH3A1. Dehydrogenase activity of the three isoenzymes were assayed by monitoring the production of NADH at 340 nm (molar extinction coefficient of 6220 M^−1 cm^−1) on a Beckman DU-640 or Cary 300 Bio UV-Vis spectrophotometer for 2 to 3 minutes. For ALDH1A1 and ALDH2, the reaction contained 100-200 nM enzyme, 200 μM NAD^+, 100 μM propionaldehyde, and 1% DMSO in 50 mM Na^+ BES, pH 7.5 at room temperature. For ALDH3A1, the reaction contained 20 nM enzyme, 200 μM NAD^+, 300 μM benzaldehyde, and 1% DMSO in either 100 mM sodium phosphate or 50 mM Na^+ BES at pH 7.5 at room temperature.
For most compounds, 20 μM concentration was used for the selectivity assays. […] Following a 2 minute incubation of enzyme, compound, and NAD^+, the reaction was initiated by adding substrate. […] Data were fit to the four parameter EC50 equation using SigmaPlot (StatSys v12.3).
Dehydrogenase activity of purified recombinant ALDH1A1, ALDH1A2, ALDH1A3, ALDH1B1, ALDH2, and ALDH3A1 was assayed spectrophotometrically by monitoring the formation of NADH at 340 nm (molar extinction coefficient of 6220 M^−1 cm^−1) on a Beckman DU-640 or Cary 300 Bio UV-Vis spectrophotometer. Characterization of ALDH1A1 WT and ALDH1A1 G458N were performed by co-varying acetaldehyde and NAD^+ concentrations in reactions containing 150-300 nM enzyme, 50-500 μM or 20-200 μM acetaldehyde, and 50-500 μM NAD^+ in 50 mM sodium BES, pH 7.5 at 25° C. Reactions were initiated by adding enzyme. Selectivity of compounds for dehydrogenase activity of ALDH1A1, ALDH1A2, ALDH1A3, ALDH1B1 and ALDH2 were measured in a solution containing 100-200 nM enzyme, 200 μM NAD^+, 1% DMSO, and 100 μM propionaldehyde (non-saturating for all enzymes tested, except ALDH2) in 50 mM sodium BES. ALDH3A1 activity was measured under the following conditions: 25 nM enzyme, 200 μM NAD^+, 1% DMSO, and 300 μM benzaldehyde (˜KM) in either 100 mM sodium phosphate buffer, pH 7.5 or 50 mM sodium BES, pH 7.5. All assays were performed at 25° C. and were initiated by the addition of the aldehyde substrate following a 2 minute pre-incubation with compound and cofactor. Selectivity was initially tested using 20 μM compound, with ALDH1A1-selective modulators further tested using 100 μM compound. […] After a 2 minute pre-incubation with compound and NAD^+, all reactions were initiated by the addition of propionaldehyde. Data were fit to the four parameter EC50 equation using SigmaPlot (StatSys v12.3). The values represent the average of three independent experiments (each n=3). The mode of inhibition was determined via steady-state kinetics by co-varying inhibitor and substrate concentrations at fixed concentration of the second substrate. All reactions contained 100-150 nM ALDH1A1 and 1% DMSO in 50 mM sodium BES, pH 7.5 at 25° C. […] All data were fit to competitive, noncompetitive, uncompetitive, and mixed inhibition models using both single substrate-single inhibitor or tight binding inhibition programs in SigmaPlot (StatSys v12.3). The appropriate model was selected through analysis of goodness-of-fit and the residuals of those fits. The values represent the average of three independent experiments (each n=3) using at least two protein preps.
ALDH1A1, ALDH1A2, ALDH1A3, ALDH2, and ALDH3A1 were produced and purified as previously described. A highthroughput screen (HTS) of 64,000 compounds from the ChemDiv Corp. was performed to identify activators and inhibitors of ALDH1A1. The hydrolysis of para-nitrophenylacetate was used as a measure ALDH1A1 activity (see SM). Selectivity for closely related orthologs was tested at 20 and 100 μM using purified recombinant human ALDH1A1, ALDH1A2, ALDH1A3, ALDH2, and ALDH3A1. […]

Another assay addresses T2, ALDH1A2 (Homo sapiens, UniProt O94788).
T2 sequence (O94788 1-518): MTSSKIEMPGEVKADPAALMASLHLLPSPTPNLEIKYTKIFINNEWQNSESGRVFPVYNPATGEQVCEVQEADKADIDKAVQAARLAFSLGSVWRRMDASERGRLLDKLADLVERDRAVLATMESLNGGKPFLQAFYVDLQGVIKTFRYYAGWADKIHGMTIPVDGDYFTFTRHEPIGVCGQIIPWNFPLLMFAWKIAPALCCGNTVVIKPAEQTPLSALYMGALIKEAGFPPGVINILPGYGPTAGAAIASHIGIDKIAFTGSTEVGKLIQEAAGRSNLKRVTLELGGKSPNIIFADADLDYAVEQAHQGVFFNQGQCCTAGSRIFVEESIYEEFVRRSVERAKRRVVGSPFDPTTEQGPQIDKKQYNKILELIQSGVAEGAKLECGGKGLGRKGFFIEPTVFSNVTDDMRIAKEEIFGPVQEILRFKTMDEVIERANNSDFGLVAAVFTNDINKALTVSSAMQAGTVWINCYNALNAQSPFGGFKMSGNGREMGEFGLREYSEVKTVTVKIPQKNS
Put plainly: biochemical. The assay is classed as biochemical. The following applies: for effect on aldehyde oxidation catalyzed by ALDH1A2: 100 μM compound (CM037: concentrations up to 100 μM).

The mark [1] stands for this setting: Table 4, NI/NI(A) at 100 μM compound, read-out: IC50 in μM (SE) ALDH1A2.

Like-named read-outs stand apart in the source and are kept apart here. Where only a bound is given, the exact number is not on record here.

For the molecule `CC(C)CCn1c(CN2CCN(C(=O)c3ccco3)CC2)nc2c1c(=O)n(C)c(=O)n2C` [CM026], the “effect on ALDH3A1” value at ALDH3A1 (20 μM compound) is listed as “no effect”. For the same molecule, the half-maximal inhibitory concentration (IC50) at ALDH3A1 and on ALDH1A2 (setting [1]) was > 100 µM in each case. The “effect on ALDH1A2” value on ALDH1A2 (20 μM compound) was “no effect”. For the same molecule, the “effect on aldehyde oxidation catalyzed by ALDH1A2” value on ALDH1A2 is listed as “modestly increased”.

Turning to `Cn1c(=O)c2c(nc(CN3CCC(C(N)=O)CC3)n2CCCc2ccccc2)n(C)c1=O` [CM028], the IC50 at ALDH3A1 and at ALDH1A2 (setting [1]) was > 100 µM each time.

As to `CCOC(=O)CSc1nc2c(sc3ccccc32)c(=O)n1CCCN1CCCC1` [CM037, ethyl-2-((4-oxo-3-(3-(pryrrolidin-1-yl)propyl)-3,4-dihydrobenzo[4,5]thioeno[3,2-d]pyrimidin-2-yl)thio)acetate], the “effect on ALDH3A1” value on ALDH3A1 (concentrations up to 100 μM) is given as “no effect”. For the same molecule, on ALDH1A2, the “effect on aldehyde oxidation catalyzed by ALDH1A2” value is listed as “no effect”.

On to `CC(C)CCn1c(CN2CCOCC2)nc2c1c(=O)n(C)c(=O)n2C` [CM056], for which the IC50 on ALDH3A1 and at ALDH1A2 (setting [1]) was > 100 µM throughout.

Take `COc1ccc(C(=O)CSC#N)cc1OC` [CM302]: the “effect on ALDH3A1” value on ALDH3A1 (20 μM compound) was “To a limited degree”. In addition, on ALDH3A1 (fold higher), the “IC50 with ALDH3A1 compared to ALDH1A1 and ALDH2” value is “greater than 10 fold”.

Turning to `Cn1c(=O)c2c(ncn2C)n(C)c1=O` [Caffeine, reference compound], the half-maximal inhibitory concentration (IC50) at ALDH3A1 and at ALDH1A2 (setting [1]) was > 100 µM throughout.

As to `Cn1c(=O)c2[nH]cnc2n(C)c1=O` [Theophylline, reference compound], the 50% inhibitory concentration (IC50) at ALDH3A1 and at ALDH1A2 was > 100 µM in each case.

For the origin of these results see patent US20150306108A1, “COMPOSITIONS OF ALDH1A1 INHIBITORS AND METHODS OF USE IN TREATING CANCER” (Indiana University Research & Technology Corporation, priority 2014, published 2015).
